Assay: gradient 5% acetonitrile 3 min, to 50% in 2 min, to 85% in 15 min, held 3 min, 100 µL/min
Conditions: column: Zorbax Extend-C18 2.1 x 50 mm; eluents: water / acetonitrile, 0.1% formic acid
In short: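 Data were gathered over 3 months by HPLC coupled to a quadrupole time-of-flight mass spectrometer, operated in positive and negative ionization mode. Mixtures of ~100 pure standards ran on a Zorbax Extend-C18 column (2.1 × 50 mm, 1.8 μm) at 100 μL/min, with water and acetonitrile each containing 0.1% formic acid and dead and dwell volumes of 40 μL and 900 μL. Retention time was read from adduct peaks picked by computer and checked manually.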

SMILES	RP-LC retention time [s]
COc1ccc(Br)cc1CNC(=O)CN1C(=O)CCCc2ccccc21	892
CCN1CCN(C(=O)C2CCN(S(=O)(=O)c3c(C)nn(-c4ccccc4)c3C)CC2)CC1	621
CC(C)CCC(=O)N1CCN(c2nc(CN3CCOCC3)cs2)CC1	624
CN(Cc1nc2ccccc2[nH]1)C(=O)c1ccco1	537
O=C(Cc1cccs1)N1CCCN(c2cc(-c3ccc4c(c3)OCO4)[nH]n2)CC1	671
Cc1ccc(S(=O)(=O)N2C[C@H](F)C[C@@H]2C(=O)N2CCOCC2)cc1Cl	750
O=C(CC1=C2CCCCC2NC1=O)NCCc1c[nH]c2ccccc12 (centres undefined)	673
CC(=O)NC(C)c1nc(-c2ccc(C(C)(C)C)cc2)no1 (centres undefined)	901
COCCN(C)C(=O)c1cn(C2CN(S(=O)(=O)c3cn(C)cn3)C2)nn1	585
Cc1ccccc1-n1c(Cn2nc(-c3cccc(O)c3)c3c(N)ncnc32)nc2cccc(C)c2c1=O	778
O=C(CN1C(=O)CN(C(=O)Nc2ccccc2)c2ccccc21)N1CCCc2ccccc21	940
CCc1ccccc1NS(=O)(=O)c1ccc2c(c1)CCCC(=O)N2	756
Cc1ccc(CNC(=O)C2CCN(S(=O)(=O)c3cc(C(=O)N(C)C)cs3)CC2)o1	708
Cc1cc2ccccc2n1-c1ccc(C(N)=O)s1	842
CC1CCN(S(=O)(=O)c2nn(C)cc2C(=O)NCc2cc(F)cc(F)c2)CC1	969
O=C(CN1c2ccc(F)cc2-c2ccccc2S1(=O)=O)NCc1ccc2c(c1)OCO2	913
Cc1ccc(NS(=O)(=O)c2cc3n(c2)CCN(C(C)C)C3=O)cc1C	794
O=C(CCc1nc2ccccc2s1)N1C[C@H]2CNC(=O)[C@]23CCCC[C@@H]13	705
CC(=O)N1c2ccc(S(=O)(=O)N3CCCCCC3)cc2CC1C(=O)NC1CCCCCC1 (centres undefined)	959
Cc1cc(C)n(-c2ccnc(NCCc3ccccn3)n2)n1	596
Clc1ccc(Cl)c(-c2ccc(CNCC3CCCO3)o2)c1 (centres undefined)	699

SMILES	RP-LC retention time [s]
NC(=O)c1cccn1Cc1ccc(Cl)cc1	778
O=C(CC1CCCCC1)Nc1cccc(-c2nnc3n2CCCC3)c1	731
O=C(Nc1ccc2c(c1)OCO2)N1CCC(N2CCN(Cc3ccc(F)cc3)C2=O)CC1	788
O=c1c2oc3ccccc3c2ncn1Cc1nc(-c2cccc(C(F)(F)F)c2)no1	1040
COc1ncccc1CNC(=O)c1cccn1C	704
O=C(O)c1cn(-c2ccc(F)c(Cl)c2)nn1	727
O=C(NCCC1=CCCCC1)c1nnc(-c2ccc(S(=O)(=O)N3CCCC3)cc2)o1	1050
CCCCc1nc(N2CCN(C(=O)c3ccco3)CC2)c(C#N)c2c1COC(C)(C)C2	1190
Cn1c(=O)c(F)c(Nc2ccc(I)cc2F)c2c(=O)n(C[C@@H](O)CO)cnc21	756
CCOc1ccc(Br)cc1S(=O)(=O)N1CCN(c2nc(C)cc(N(C)C)n2)CC1	765
CC1=C(C(=O)N2CCOCC2)C(c2cccc(Br)c2)C2=C(CCCC2=O)N1 (centres undefined)	664
Cc1ccc(Cl)cc1NC(=O)CSc1ccc(N2CCCC(C(=O)NC3CC3)C2)nn1 (centres undefined)	698
c1cc(-c2nc3c(c(N4CCSCC4)n2)CCC3)ccn1	675
CCOC(=O)c1csc(NC(=O)c2csc3nc(-c4ccc(F)cc4)cn23)n1	913
CCC(CC)NS(=O)(=O)c1cc(-c2[nH]ncc2C(=O)N(C)C)oc1C	659
Cc1ccc2nsnc2c1S(=O)(=O)NCCc1c(C)[nH]c2ccccc12	948
O=C([C@@H]1C[C@H](F)CN1S(=O)(=O)c1ccc(F)c(Cl)c1)N1CCCCC1	875
COc1cc(-c2nc(Cn3c(C)nc4ccccc4c3=O)no2)cc(OC)c1OC	801
Cc1cccc(CCNC(=O)c2cc3n(n2)CC(C)(C(=O)NCc2ccccc2)N(C)C3=O)c1 (centres undefined)	814
O=C(NCc1ccc(F)c(Cl)c1)c1sc2ncccc2c1-n1cccc1	1050
Cn1c(N2CCC(C(=O)N3CCN(c4ccc(Cl)cc4)CC3)CC2)cc(=O)n(C)c1=O	721

SMILES	RP-LC retention time [s]
COc1cccc(NC(=O)Cn2nc3c(Oc4ccc(F)cc4)nccn3c2=O)c1	812
Cc1ccc(N2CCN(c3nccn4nc(-c5ccc(Cl)cc5)cc34)CC2)cc1	1400
COCCCN1C(=O)CSc2c(c3ccccc3n2C)C1C(=O)NCc1ccccc1OC (centres undefined)	893
O=C(c1cc(C2CC2)[nH]n1)N1CCCCC1	661
O=C(Nc1ncc(Cc2ccccc2Cl)s1)c1cc2ccccc2c(=O)o1	991
O=C(NCc1ccc2c(c1)OCO2)C(=O)NCC1OCCN1S(=O)(=O)c1ccccc1 (centres undefined)	752
O=C(Nc1nc(-c2ccccc2)cs1)c1c(-c2ccccc2)nc2n1CCS2(=O)=O	1010
CC(C)N1CCN(Cc2nc(-c3ccc(N4CCOCC4)nc3)no2)CC1	574
O=C(NCc1ccccn1)C1CCc2sc(C(=O)N3CCCC3)cc2C1 (centres undefined)	518
Cc1ccc(C)c(NC(=O)C2CCN(C(=O)C3Sc4ccccc4NC3=O)CC2)c1 (centres undefined)	760
CCCN(CC1CCOC1)C(=O)c1ccccc1Cl (centres undefined)	788
CCNC(=O)Nc1ccc2c(c1)CN(CC1CCCCC1)CCO2	610
O=C(Nc1ccc2c(c1)OCCO2)N1CCC2(CC1)Nc1ccccc1-n1cccc12	934
Cc1ccc(-n2cc(C3=CCN(CC(=O)N4CCN(c5ccccn5)CC4)CC3)cn2)cc1	584
O=C(NCCc1ccccc1)C(=O)NCC(c1ccc2c(c1)OCO2)N1CCOCC1 (centres undefined)	672
CC1=C(c2ccc(C)cc2)S(=O)(=O)N=C1N1CCC(NC(=O)c2cc(C)n(C)n2)CC1	769
CCCS(=O)(=O)c1nc2ccc(NS(C)(=O)=O)cc2s1	755
CCOC(=O)c1ccccc1NC(=O)Cn1cnc2c(sc3nc(-c4ccccc4)ccc32)c1=O	1200
CC(=O)Nc1ccc(C(=O)Nc2ccccc2N)cc1	629

More lines, now with the values ahead:

RP-LC retention time [s]	SMILES
989	COc1ccc(-c2noc(-c3ccc(N4CCN(C(=O)c5ccco5)CC4)nc3)n2)cc1
1040	CCN1C(=O)COc2ccc(-c3noc(-c4ccc5cc[nH]c5c4)n3)cc21
1230	CCOc1ccccc1C(=O)Nc1ccc(Cl)c(C(F)(F)F)c1
672	COc1ccccc1-c1nc2cnccn2c1NCCC(=O)Nc1ccc2c(c1)OCCO2
851	CN(C(=O)C1CCCN(c2ncnc3c2nc2n3CCCCC2)C1)c1cccc(Cl)c1 (centres undefined)
775	Cc1ccc(-c2nnc(-c3cccc(S(=O)(=O)Nc4cccnc4)c3)o2)cc1
579	O=C(NCC#CCN1CCc2ccccc2C1)c1ccc2cc[nH]c2c1
921	Cc1nn(-c2cc(N3CCCCC3)ncn2)c(C)c1CCC(=O)Nc1ccc2c(c1)OCO2
812	CCN(Cc1cnn(CC)c1)C(=O)C1CN(C(=O)c2ccccc2)CC12CCCCC2 (centres undefined)
795	Cc1ccc(NC(=O)N2C[C@H](c3nc(-c4ccncc4)no3)[C@@H](C)C2)cc1
724	COc1ccc(Cl)cc1N1CC(c2nc(-c3ccccn3)no2)CC1=O (centres undefined)
628	Cc1cnc(C(=O)N2CCC(c3noc(-c4cccnc4)n3)C2)cn1 (centres undefined)
1000	CCc1cc(C(=O)NCc2ccccc2Cl)nc2ccnn12
908	CCCCOc1ccc(C(=O)Nc2cc(C)no2)cc1
946	C[C@@]1(C(=O)Nc2ccc(F)nc2)CCCN1c1nc(Nc2cc(C3CC3)[nH]n2)c2cccn2n1
939	Cc1nc(-c2csc(S(=O)(=O)N3CCCC(C(=O)Nc4ccc(C)c(C)c4)C3)c2)no1 (centres undefined)
839	COc1ccccc1-c1noc(C2CCCN2C(=O)c2ccc(C#N)cc2F)n1 (centres undefined)
651	CCN(CC)c1ccc(-c2noc(CN3CCSCC3)n2)cn1
1030	CCc1noc(C2(NC(=O)c3ccc(Br)cc3)CCCCC2)n1
766	CCOc1cc(C)c(C(C)C)cc1S(=O)(=O)NCc1ccccn1
849	Cc1csc(-c2ccc(N3CCN(C(=O)Cc4cccc(F)c4)CC3)nc2)n1
1200	Cc1ccc(C(=O)N2CCCC2c2nc(-c3cccc(Cl)c3)no2)cc1C (centres undefined)
1150	O=C(Nc1cccc(Cl)c1)N1CCc2nc(-c3ccc(Cl)cc3)ncc2C1
998	CCOc1ccc(C(=O)NC2(c3nc(-c4cccnc4)no3)CCCCC2)cc1OCC
1010	O=C(Nc1cnn(-c2ncc(N3CCCCC3)cn2)c1)c1ccc(C(F)(F)F)cc1
991	Cc1nc2cc(-c3noc(-c4ccccn4)n3)ccc2n(C2CCCC2)c1=O
748	O=C(O)c1cccc(Nc2c(-c3cccc(Br)c3)nc3cnccn23)c1
664	CC1=C(c2ccccc2)S(=O)(=O)N=C1N1CCCN(C(=O)c2cccnc2)CC1

Source: the METLIN SMRT retention time set (Domingo-Almenara et al. 2019)
